Test results: patent US9346832B2, “Gold complexes for use in the treatment of cancer” (University of Kwazulu-Natal, priority 2010, dated 2016)
Where two headings read alike, the source gives them in different places.

Assays:
[1] = tested on: 60 human cancer cell lines; assay: NCI-60 one-dose screen; assay type: cell-based; details: single dose 10 μM
Procedure: (§1) The gold(III) complexes of this invention were screened by the National Cancer Institute (NCI, USA) against their panel of 60 different human cancer cell lines. These screens initially entail a one-dose test for the compound at a high concentration (10 μM; e.g. FIGS. 5, 6 and 7). Compounds with a good cytotoxicity profile in the one-dose screen are then subjected to a five-dose screen for the full panel of sixty human cancer cell lines (the so-called 5-dose NCI-60 screen). In the full five-dose screen, the compound concentration is varied in five doses from 10^−8 M to 10^−4 M in order to establish a dose-response function of percentage cell growth versus the concentration of the test agent. […] Similar data will shortly be available for compounds 1.1Y^1b and 1.5Y^1a as these derivatives are in 5-dose screens currently at the NCI.
The results of one-dose NCI-60 screens are noteworthy and merit some discussion as they quickly indicate activity profiles, cell-line specificity, and general cytotoxicity for the test agents across multiple human cancer cell lines. FIGS. 5, 6, and 7 set out the one-dose screening results for MA_AuPr (FIG. 5), KA_AumacroPr (FIG. 6), and KA_AuMelmPr (FIG. 7) obtained by the NCI. These three compounds are the parent derivatives that are representative of the three new types of gold(III) Schiff base chelate relevant to this invention. All other compounds synthesized as part of this invention have been similarly analyzed.

HeLa cells = assay: HeLa cell cytotoxicity dose-response; assay type: cell-based
Procedure: FIG. 9 is a graph of the dose-response curves (HeLa cells, pH 7.0, 37° C.) for three macrocyclic Au(III) chelates. IC50 values for the complexes against HeLa cells obtained from the least squares data fits (graph) are given in the 3rd column of the table.
A summary of the average cytotoxicity data over 60 human cancer cell lines for 1.1a-1.1c and comparison with selected commercial and patented cytotoxic agents is shown in Scheme 7. […] The more abrupt the curve, the harder the dose-response function.

topoisomerase I = target: T1, topoisomerase I (Homo sapiens, UniProt P11387); assay: Supercoiled plasmid DNA relaxation assay with human topoisomerase I; assay type: biochemical
T1 sequence (P11387 1-765): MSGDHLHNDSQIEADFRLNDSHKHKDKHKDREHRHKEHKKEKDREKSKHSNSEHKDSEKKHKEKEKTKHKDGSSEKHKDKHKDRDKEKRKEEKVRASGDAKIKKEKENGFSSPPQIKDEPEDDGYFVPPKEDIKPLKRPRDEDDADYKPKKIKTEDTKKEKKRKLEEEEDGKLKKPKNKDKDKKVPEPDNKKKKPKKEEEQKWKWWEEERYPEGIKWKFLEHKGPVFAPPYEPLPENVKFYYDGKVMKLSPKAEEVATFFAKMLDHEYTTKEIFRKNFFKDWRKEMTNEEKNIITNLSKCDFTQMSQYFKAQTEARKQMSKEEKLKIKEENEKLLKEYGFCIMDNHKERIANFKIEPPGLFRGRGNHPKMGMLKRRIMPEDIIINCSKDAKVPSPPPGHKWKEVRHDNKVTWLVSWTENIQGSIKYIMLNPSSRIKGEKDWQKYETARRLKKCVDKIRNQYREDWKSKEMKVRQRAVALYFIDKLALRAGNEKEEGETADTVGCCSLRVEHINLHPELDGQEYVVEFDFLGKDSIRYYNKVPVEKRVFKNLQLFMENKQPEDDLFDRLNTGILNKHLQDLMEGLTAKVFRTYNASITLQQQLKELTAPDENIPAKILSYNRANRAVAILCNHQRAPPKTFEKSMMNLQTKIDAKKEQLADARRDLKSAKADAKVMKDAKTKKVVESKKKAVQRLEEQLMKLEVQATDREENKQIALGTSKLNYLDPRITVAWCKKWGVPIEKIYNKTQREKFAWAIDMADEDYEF
Procedure: FIG. 19 is a photograph of a gel showing the inhibition of human topoisomerase I by KA_AumacroPr as determined by supercoiled plasmid DNA relaxation assay (agarose gel electrophoresis).
Lanes 2-12 have 5U of topoisomerase I. The enzyme fully relaxes supercoiled (SC) DNA in lanes 3-8 for KA_AumacroPr concentrations ranging from 0-50 nM.
This is consistent with strong intercalative binding of KA_AumacroPr to the plasmid DNA probably before and after the action of topoisomerase I, and consequently inhibition of its normal turnover cycle.

calf thymus DNA = assay: Calf-thymus DNA titration (absorption hypochroism); assay type: binding
Procedure: FIG. 20 is a graph of the titration of MA_AuPr (1.1a) with calf-thymus DNA in aqueous pH 7 phosphate buffer at 37° C.
The hypochroism of the absorption band of the complex at 383 nm was monitored as a function of added ctDNA. […] Ka is the equilibrium binding constant in M^−1, Ct is the total Au(III) complex concentration, and s is the binding site size.

human cancer cell lines = assay: Cytotoxicity summary (NCI-60 or independent cytotoxicity screen), Scheme 19; assay type: cell-based
[2] = Hydrolysis in aqueous solution; assay type: physicochemical; details: aqueous / phosphate buffered aqueous solutions
Source text: This is why binding to DNA of the intact chelate occurs (FIGS. 14 and 20). However, it is noteworthy that hydrolysis of a Au(III)-Npyrrole bond is a reaction that may be catalyzed by enzymes in plasma and could account for the plasma instability of MA_AuPr.

[3] = target: topoisomerase II (topo II) (Homo sapiens, UniProt P11388); assay: Topoisomerase II (topo II) DNA cleavage assay with kinetoplast DNA, agarose gel; assay type: biochemical
Procedure: FIG. 18 is a photograph of an agarose gel electrophoresis topoisomerase II (topo II) DNA cleavage assay (66 ng kinetoplast DNA, 4 U topo II) as a function of the concentration of KA_AumacroPr (complex 1.1Y^1a) (top) and a graph of a standard dose-response function fit of the experimental titration data (top gel) with (solid line) and without (dashed line) a Hill coefficient. The maximum ESD from triplicate measurements is shown (15%). Lanes 1-4 of the gel contain catenated DNA (no topo II), decatenated DNA (topo II present), decatenated DNA (solvent control), and linear DNA, respectively. The lane marked VP-16 contained DNA, topo II, and etoposide (VP-16). Band labels: I, catenated DNA; II, open-circular (OC) DNA; III, linear DNA; IV, closed-covalently circular (CCC) DNA. […]
The topo II inhibition assay for the Au(III) macrocycle KA_AumacroPr is shown above in FIG. 18.

[4] = tested on: 60 human cancer cell lines; assay: NCI-60 five-dose screen, mean cytotoxicity over 60 human cancer cell lines; assay type: cell-based; details: mean over 60 human cancer cell lines
Procedure: as §1
The mean cytotoxicity data summarized in Scheme 7 were compiled over 60 human cancer cell lines from the NCI database. […] The dose-response curves for the bis(pyrrolide-imine) chelates of the invention are steeper, or harder, than those of all the compounds compared in Scheme 7.

[5] = tested on: panel of human cancer cell lines; details: cited from earlier work
[6] = tested on: 60 human cancer cell lines; details: comparison drugs, NCI database, mean over 60 cell lines, cited from earlier work
[7] = tested on: 3LL tumor (Lewis lung carcinoma); assay: 3LL tumor growth in black mice; details: 20 days, 26 μmol/kg once weekly

Sequence of topoisomerase II (topo II) (P11388 whole entry): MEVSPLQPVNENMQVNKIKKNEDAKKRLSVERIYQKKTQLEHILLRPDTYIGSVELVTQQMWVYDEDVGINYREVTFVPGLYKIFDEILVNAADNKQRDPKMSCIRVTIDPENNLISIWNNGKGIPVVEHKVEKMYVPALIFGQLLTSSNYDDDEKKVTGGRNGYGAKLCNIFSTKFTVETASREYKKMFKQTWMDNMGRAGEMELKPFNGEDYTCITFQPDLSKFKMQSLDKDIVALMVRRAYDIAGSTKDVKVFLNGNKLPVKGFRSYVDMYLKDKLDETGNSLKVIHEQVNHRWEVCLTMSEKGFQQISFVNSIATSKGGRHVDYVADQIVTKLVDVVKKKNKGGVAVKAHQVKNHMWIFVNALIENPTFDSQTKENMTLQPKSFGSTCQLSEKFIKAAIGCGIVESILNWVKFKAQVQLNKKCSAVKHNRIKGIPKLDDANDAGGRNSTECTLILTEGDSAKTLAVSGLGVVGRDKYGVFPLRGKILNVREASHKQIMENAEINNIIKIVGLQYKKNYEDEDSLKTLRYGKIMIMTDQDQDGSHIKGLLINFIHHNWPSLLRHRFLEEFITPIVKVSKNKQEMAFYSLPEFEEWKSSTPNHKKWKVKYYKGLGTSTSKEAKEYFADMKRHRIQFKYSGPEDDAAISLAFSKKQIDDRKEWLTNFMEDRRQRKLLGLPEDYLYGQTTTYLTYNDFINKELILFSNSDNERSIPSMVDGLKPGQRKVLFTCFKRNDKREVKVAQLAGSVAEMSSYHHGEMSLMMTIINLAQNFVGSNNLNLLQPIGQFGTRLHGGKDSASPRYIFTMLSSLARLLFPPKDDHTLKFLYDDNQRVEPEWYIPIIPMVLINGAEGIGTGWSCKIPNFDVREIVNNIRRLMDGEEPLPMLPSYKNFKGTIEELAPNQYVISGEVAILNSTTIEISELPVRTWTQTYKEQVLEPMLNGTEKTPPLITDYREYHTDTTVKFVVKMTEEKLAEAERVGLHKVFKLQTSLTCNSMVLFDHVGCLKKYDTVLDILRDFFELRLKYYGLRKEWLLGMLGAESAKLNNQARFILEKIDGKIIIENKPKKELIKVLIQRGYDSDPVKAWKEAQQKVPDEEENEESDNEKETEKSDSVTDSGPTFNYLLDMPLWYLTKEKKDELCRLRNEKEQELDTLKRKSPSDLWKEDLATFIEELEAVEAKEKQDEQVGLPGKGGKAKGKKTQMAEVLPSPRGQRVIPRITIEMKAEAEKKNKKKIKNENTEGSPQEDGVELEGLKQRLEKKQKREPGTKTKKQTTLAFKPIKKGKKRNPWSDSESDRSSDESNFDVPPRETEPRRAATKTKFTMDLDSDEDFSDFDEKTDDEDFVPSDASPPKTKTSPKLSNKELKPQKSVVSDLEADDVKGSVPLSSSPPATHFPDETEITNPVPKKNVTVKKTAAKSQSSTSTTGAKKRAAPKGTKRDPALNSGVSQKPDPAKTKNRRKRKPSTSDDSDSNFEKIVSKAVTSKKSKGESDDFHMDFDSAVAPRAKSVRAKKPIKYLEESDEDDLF

Compound: 4,4′-{propane-1,3-diylbis[nitrilo(E)methylylide]}bis(5-methylimidazol-1-ide)gold(III) hexafluorophosphate(V) [KA_AuMelmPr]
- one-dose screening result [1]: Breast and leukemia cell lines were, as a group, the most sensitive

Compound: ClC1CN=Cc2ccc3[n]2[Au+][n]2c(ccc2-c2nc4ccccc4nc2-3)C=NC1.F[P-](F)(F)(F)(F)F (stereo not drawn) [Compound 1.1Y^1e, {13-chloro-12,14-dihydro-6,9:17,20-diepimino[1,6]diazacyclo-heptadecino[12,13-β]quinoxalinato}gold(III) hexafluorophosphate(V)]
- GI50 (HeLa cells): ~100 nM
- IC50 (HeLa cells; pH 7.0, 37° C.): ~3000 nM
- action on human topoisomerase I (topoisomerase I; listed as 1.1Y^1b): catalytic inhibitor of human topoisomerase I
- Ka (calf thymus DNA) (calf thymus DNA; KA series: pH 7.0 15% DMSO-TRIS buffer at 25° C., listed as 1.1Y^1a): 2.8(2) × 10^6 M^−1
- Ka (calf thymus DNA) (calf thymus DNA; KA series: pH 7.0 15% DMSO-TRIS buffer at 25° C., listed as 1.1Y^1b): 1.49(8) × 10^6 M^−1
- Cytotoxicity (human cancer cell lines): active

Compound: C1=[N+]2CC[N+]3=Cc4ccc[n]4[Au-]23[n]2cccc21.F[P-](F)(F)(F)(F)F [Compound 1.2a, 2,2′-{ethane-1,2-diylbis[nitrilo(E)methylylidene]}bis(pyrrol-1-ido)gold(III) hexafluorophosphate(V)]
- hydrolysis [2]: water may displace a pyrrole ring from the Au(III) ion

Compound: C1=[N+]2CCC[N+]3=Cc4ccc5[n]4[Au-]23[n]2c1ccc2-c1nc2ccccc2nc1-5.F[P-](F)(F)(F)(F)F [KA_AumacroPr, {12,13-dihydro-14H-6,9:17,20-diepimino[1,6]diazacyclo-heptadecino[12,13-β]quinoxalinato}gold(III) hexafluorophosphate(V)]
- one-dose screening result [1]: good cytotoxicity for the majority of the cell lines
- IC50 ([3]; 66 ng kinetoplast DNA, 4 U topo II, read-out: IC50 (enzyme inhibition)): 4.8 µM
- action on topo II ([3]; no trapped linear DNA cleavage products): pure catalytic inhibitor
- action on human topoisomerase I (topoisomerase I): interferes with the normal operation of human topoisomerase I
- concentrations at which the enzyme fully relaxes supercoiled DNA (topoisomerase I; 5U topoisomerase I): 0 to 50 nM
- concentrations at which topoisomerase I exhibits abnormal and incomplete substrate relaxation (topoisomerase I; 5U topoisomerase I, up to 500 μM): ≥ 500 nM

Compound: F[P-](F)(F)(F)(F)F.OC1CN=Cc2ccc[n]2[Au+][n]2cccc2C=NC1 (stereo not drawn) [MA_AuOH, 2,2{(2-hydroxypropane-1,3-diyl)bis[nitrilo(E)methyl-ylidene]}bis(pyrrol-1-ido)gold(III) hexafluorophosphate(V)]
- CC50 ([4]; 50% cell death, read-out: LC50 (the source's name)): > 100 µM
- GI50 ([4]; 50% growth inhibition): > 100 µM
- TGI (concentration for total growth inhibition) ([4]; 100% (total) growth inhibition, read-out: TGI or IC50): > 100 µM
- one-dose screening result [1]: not sufficiently active
- Ka (calf thymus DNA) (calf thymus DNA; MA series: pH 7.0 phosphate buffer at 37° C.): 1.43(3) × 10^5 M^−1

Compound: C1=Cc2nc1c(-c1ccccc1)c1ccc([n-]1)c(-c1ccccc1)c1nc(c(-c3ccccc3)c3ccc([n-]3)c2-c2ccccc2)C=C1.[Au+3].[Cl-] [[Au(TPP)]Cl]
- cytotoxicity to cancer cells versus non-cancerous cells ([5]; MTT assay, PBMCs and CCD-19Lu cells): at least ten-fold higher cytotoxicity

Compound: C1=Cc2nc1c(-c1ccccc1)c1ccc([nH]1)c(-c1ccccc1)c1nc(c(-c3ccccc3)c3ccc([nH]3)c2-c2ccccc2)C=C1 [[Zn^II(TPP)]]
- IC50 ([5]; literature values): > 50 µM

Compound: N.N.[Cl][Pt][Cl] [cisplatin, cis-[PtCl2(NH3)2]]
- GI50 ([6]; 50% growth inhibition): 2000 nM
- IC50 ([6]; read-out: TGI or IC50, total growth inhibition): 27 µM
- reduction of 3LL tumor growth rate [7]: 76%
